Measurements taken from US7223759B2, “Antibacterial 3,5-diaminopiperidine-substituted aromatic and heteroaromatic compounds” (Anadys Pharmaceuticals, Inc., priority 2003, dated 2007).

System: Escherichia coli (ATCC25922) or Staphylococcus aureus (ATCC25923)
Assay: Antibacterial MIC, microdilution method in Mueller-Hinton medium
Format: cell-based
Conditions: Escherichia coli, 18 h, MIC in E. coli or S. aureus; two-fold serial dilutions 64 to 0.5 μg/ml in duplicate; 18 hours of incubation at 35° C.; read-out: Potency (MIC)
Summary of the method: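 Read after 18 h incubation at 35° C, MIC is the lowest compound level that blocked growth. Compounds were tested in duplicate over 64–0.5 μg/ml two-fold dilutions using Mueller-Hinton microdilution per NCCLS standard.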

Structure (SMILES)	MIC [µg/mL]
Cl.NC(=O)[C@H](CO)Nc1nc(N2C[C@H](N)C[C@H](N)C2)nc(N2C[C@H](N)C[C@H](N)C2)n1 [(S)-2-[4-((3R,5S)-3,5-Diamino-piperidin-1-yl)-6-((3S,5R)-3,5-diamino-piperidin-1-yl)-[1,3,5]triazin-2-ylamino]-3-hydroxy-propionamide]	> 64
CC12CC[C@](C(=O)Nc3ccc(Nc4nc(N5C[C@H](N)C[C@H](N)C5)nc(N5C[C@H](N)C[C@H](N)C5)n4)cc3O)(OC1=O)C2(C)C [(S)-4,7,7-Trimethyl-3-oxo-2-oxa-bicyclo[2.2.1]heptane-1-carboxylic acid {4-[4,6-bis-((3R,5S)-3,5-diamino-piperidin-1-yl)-[1,3,5]triazin-2-ylamino]-2-hydroxy-phenyl}-amide]	< 64
COc1ccc(NC(=O)c2ccc(Cl)cc2O)c(Nc2nc(N3CCCCC3)nc(N3CCCCC3)n2)c1.Cl [BN-[2-(4-chloro-2-hydroxy-benzoylamino)-5-methoxy-phenyl]-4,6-Bis-((3R,5S)-3,5-diamino-piperidin-1-yl)-[1,3,5]triazine-2-amine]	> 64
CN(Cc1cccc2ccccc12)c1nc(N2CCCCC2)nc(N2CCCCC2)n1.Cl [N,N-Methyl-naphthalen-1-ylmethyl-4,6-Bis-((3R,5S)-3,5-diamino-piperidin-1-yl)-[1,3,5]triazine-2-amine]	> 64
Cl.N[C@@H]1C[C@H](N)CN(c2nc(Nc3ccc4[nH]cnc4c3)nc(N3C[C@H](N)C[C@H](N)C3)n2)C1 [N-(1H-benzoimidazol-5-yl)-4,6-Bis-((3R,5S)-3,5-diamino-piperidin-1-yl)-[1,3,5]triazine-2-amine]	< 64
Cl.N[C@@H]1C[C@H](N)CN(c2nc(Nc3c[nH]c(=O)[nH]c3=O)nc(N3C[C@H](N)C[C@H](N)C3)n2)C1 [N-(2,4-dioxo-1,2,3,4-tetrahydro-pyrimidin-5-yl)-4,6-Bis-((3R,5S)-3,5-diamino-piperidin-1-yl)-[1,3,5]triazine-2-amine]	< 64
COc1ccc(OC)c(Nc2nc(N3C[C@H](N)C[C@H](N)C3)nc(N3C[C@H](N)C[C@H](N)C3)n2)c1 [N-(2,5-dimethoxy-phenyl)-4,6-Bis-((3R,5S)-3,5-diamino-piperidin-1-yl)-[1,3,5]triazine-2-amine]	> 64
Cl.O=C(CC(=O)c1ccc(Nc2nc(N3CCCCC3)nc(N3CCCCC3)n2)cc1)Nc1ccccc1Cl [N-(2-Chloro-phenyl)-3-{4-[4-(3S,5R)-3,5-diamino-piperidin-1-yl)-6-((R)-3-hydroxy-piperidin-1-yl)-[1,3,5]triazin-2-ylamino]-phenyl}-3-oxo-propionamide]	< 64
COc1nc(Nc2ccc(C(=O)CC(=O)Nc3ccccc3Cl)cc2)nc(N2C[C@H](N)C[C@H](N)C2)n1.Cl [N-(2-Chloro-phenyl)-3-{4-[4-((3R,5S)-3,5-diamino-piperidin-1-yl)-6-methoxy-[1,3,5]triazin-2-ylamino]-phenyl}-3-oxo-propionamide]	< 16
C=CCOC1OC(CO)C(O)C(O)C1Nc1nc(N2C[C@H](N)C[C@H](N)C2)nc(N2C[C@H](N)C[C@H](N)C2)n1.Cl (stereo partly drawn) [N-(2-allyloxy-4,5-dihydroxy-6-hydroxymethyl-tetrahydro-pyran-3-yl)-4,6-Bis-((3R,5S)-3,5-diamino-piperidin-1-yl)-[1,3,5]triazine-2-amine]	> 64
Cl.N[C@@H]1C[C@H](N)CN(c2nc(Nc3ccccc3F)nc(N3C[C@H](N)C[C@H](N)C3)n2)C1 [N-(2-fluoro-phenyl)-4,6-Bis-((3R,5S)-3,5-diamino-piperidin-1-yl)-[1,3,5]triazine-2-amine]	> 64
N[C@@H]1C[C@H](N)CN(c2nc(Nc3ccccc3O)nc(N3C[C@H](N)C[C@H](N)C3)n2)C1 [N-(2-hydroxy-phenyl)-4,6-Bis-((3R,5S)-3,5-diamino-piperidin-1-yl)-[1,3,5]triazine-2-amine]	> 64
N[C@@H]1C[C@H](N)CN(c2nc(Nc3ccccc3N3CCOCC3)nc(N3C[C@H](N)C[C@H](N)C3)n2)C1 [N-(2-morpholin-44-yl-phenyl)-4,6-Bis-((3R,5S)-3,5-diamino-piperidin-1-yl)-[1,3,5]triazine-2-amine]	> 64
O=C(Nc1ccccc1)c1ccccc1Nc1nc(N2CCCCC2)nc(N2CCCCC2)n1 [N-(2-phenylcarbamoyl-phenyl)-44,6-Bis-((3R,5S)-3,5-diamino-piperidin-1-yl)-[1,3,5]triazine-2-amine]	> 64
Cl.c1ccc(Nc2ccccc2Nc2nc(C3CCCCC3)nc(N3CCCCC3)n2)cc1 [N-(2-pohenylamino-phenyl)-4,6-Bis-((3R,5S)-3,5-diamino-piperidin-1-yl)-[1,3,5]triazine-2-amine]	> 64
Cl.N[C@@H]1C[C@H](N)CN(c2nc(Nc3ccccc3-n3cccc3)nc(N3C[C@H](N)C[C@H](N)C3)n2)C1 [N-(2-pyrrol-1-yl-phenyl)-4,6-Bis-((3R,5S)-3,5-diamino-piperidin-1-yl)-[1,3,5]triazine-2-amine]	< 64
Cl.N[C@@H]1C[C@H](N)CN(c2nc(Nc3ccccc3S(N)(=O)=O)nc(N3C[C@H](N)C[C@H](N)C3)n2)C1 [N-(2-sulfamoyl-phenyl)-4,6-Bis-((3R,5S)-3,5-diamino-piperidin-1-yl)-[1,3,5]triazine-2-amine]	> 64
N[C@@H]1C[C@H](N)CN(c2nc(Nc3ccccc3S(N)(=O)=O)nc(N3C[C@H](N)C[C@H](N)C3)n2)C1 [N-(2-sulfamoyl-phenyl)-4,6-Bis-((3R,5S)-3,5-diamino-piperidin-1-yl)-[1,3,5]triazine-2-amine]	> 64
Cl.N[C@@H]1C[C@H](N)CN(c2nc(Nc3ccc(Cl)c(Cl)c3)nc(N3C[C@H](N)C[C@H](N)C3)n2)C1 [N-(3,4-dichloro-phenyl)-4,6-Bis-((3R,5S)-3,5-diamino-piperidin-1-yl)-[1,3,5]triazine-2-amine]	< 64
Cc1ccc(Nc2nc(N3C[C@H](N)C[C@H](N)C3)nc(N3C[C@H](N)C[C@H](N)C3)n2)cc1C.Cl [N-(3,4-dimethyl-phenyl)-4,6-Bis-((3R,5S)-3,5-ddiamino-piperidin-1-yl)-[1,3,5]triazine-2-amine]	< 64
Cl.N[C@@H]1C[C@H](N)CN(c2nc(Nc3cccc(Br)c3)nc(N3C[C@H](N)C[C@H](N)C3)n2)C1 [N-(3-bromo-phenyl)-4,6-Bis-((3R,5S)-3,5-diamino-piperidin-1-yl)-[1,3,5]triazine-2-amine]	< 64

Same assay, conditions: Escherichia coli, 18 h, read-out: Potency (MIC)

Structure (SMILES)	MIC [µg/mL]
CN(c1nc(N2C[C@H](N)C[C@H](N)C2)nc(N2C[C@H](N)C[C@H](N)C2)n1)C1CCN(Cc2ccccc2)C1 (stereo partly drawn) [N-(1-Benzyl-pyrrolidin-3-yl)-N-methyl-4,6-Bis-((3R,5S)-3,5-diamino-piperidin-1-yl)-[1,3,5]triazine-2-amine]	< 64
N[C@@H]1C[C@H](N)CN(c2nc(NCc3ccc(Cl)cc3Cl)nc(N3C[C@H](N)C[C@H](N)C3)n2)C1 [N-(2,4-dichloro-benzyl)-4,6-Bis-((3R,5S)-3,5-diamino-piperidin-1-yl)-[1,3,5]triazin-2-amine]	> 64
COc1cccc(OC)c1CNc1nc(N2C[C@H](N)C[C@H](N)C2)nc(N2C[C@H](N)C[C@H](N)C2)n1 [N-(2,6-dimethoxy-benzyl)-4,6-Bis-((3R,5S)-3,5-diamino-piperidin-1-yl)-[1,3,5]triazine-2-amine]	> 64
N[C@@H]1C[C@H](N)CN(c2nc(Nc3ccc(C(=O)CC(=O)Nc4ccccc4Cl)cc3)nc(N3C[C@@H](N)[C@@H](N)C3)n2)C1 [N-(2-Chloro-phenyl)-3-{4-[4-((3R,5S)-3,5-diamino-piperidin-1-yl)-6-((3R,4S)-3,4-diamino-pyrrolidin-1-yl)-[1,3,5]triazin-2-ylamino]-phenyl}-3-oxo-propionamide]	< 64
N[C@@H]1C[C@H](N)CN(c2nc(Nc3ccc(C(=O)CC(=O)Nc4ccccc4Cl)cc3)nc(N3C[C@H](O)C[C@H](O)C3)n2)C1 [N-(2-Chloro-phenyl)-3-{4-[4-((3R,5S)-3,5-diamino-piperidin-1-yl)-6-((3R,5S)-3,5-dihydroxy-piperidin-1-yl)-[1,3,5]triazin-2-ylamino]-phenyl}-3-oxo-propionamide]	< 64
N[C@@H]1C[C@H](N)CN(c2nc(Nc3ccc(C(=O)CC(=O)Nc4ccccc4Cl)cc3)nc(N3C[C@@H](O)[C@@H](O)C3)n2)C1 [N-(2-Chloro-phenyl)-3-{4-[4-((3S,5R)-3,5-diamino-piperidin-1-yl)-6-((3R,4S)-3,4-dihydroxy-pyrrolidin-1-yl)-[1,3,5]triazin-2-ylamino]-phenyl}-3-oxo-propionamide]	< 64
COc1cc2c(cc1Nc1nc(N3C[C@H](N)C[C@H](N)C3)nc(N3C[C@H](N)C[C@H](N)C3)n1)oc1ccccc12 [N-(2-methoxy-dibenzofuran-3-yl)-4,6-Bis-((3R,5S)-3,5-diamino-piperidin-1-yl)-[1,3,5]triazine-2-amine]	< 64
N[C@@H]1C[C@H](N)CN(c2nc(Nc3ccccc3N3CCCCC3)nc(N3C[C@H](N)C[C@H](N)C3)n2)C1 [N-(2-piperidin-1-yl-phenyl)-4,6-Bis-((3R,5S)-3,5-diamino-piperidin-1-yl)-[1,3,5]triazine-2-amine]	> 64
Cc1cc(C)cc(Nc2nc(N3C[C@H](N)C[C@H](N)C3)nc(N3C[C@H](N)C[C@H](N)C3)n2)c1 [N-(3,5-dimethyl-phenyl)-4,6-Bis-((3R,5S)-3,5-diamino-piperidin-1-yl)-[1,3,5]triazine-2-amine]	< 64
N[C@@H]1C[C@H](N)CN(c2nc(Nc3cccc(I)c3)nc(N3C[C@H](N)C[C@H](N)C3)n2)C1 [N-(3-Iodo-phenyl)-4,6-Bis-((3R,5S)-3,5-diamino-piperidin-1-yl)-[1,3,5]triazine-2-amine]	< 64
